Tested on: MDA-MB-231
Experiment: Mitochondrial membrane potential (JC-1)
Format: cell-based
Details: MDA-MB-231, 10 μM, 6 h, versus DMSO
Text: Activated DEG included NDUFS7, [complex I], COX7A1 gene [complex IV], and ATP5O, ATP5I genes [complex V] whereas the inhibited DEG were MT-ND4L [complex I], SDHD gene [complex II], and ATP5C, ATP5F [complex V]. […] These findings prompted functional biology experiments to further corroborate the effect of 2a or its mechanism of action in TNBC. We examined the effect of 2a on mitochondrial membrane potential, assayed by JC-1 dye.[85] […] We used carbonyl cyanide m-chlorophenyl hydrazine (CCCP), an uncoupler, as a positive control to validate the experiment. The MMP is a key driving force in ATP synthesis and overall a key factor in maintaining redox homeostasis throughout the cell.[86] […]
text (Figure 5C). Samples 37 °C, NaN 3, methyl-β-cyclodextrin, and chlorpromazine hydrochloride were calculated using calibration curve Fig. S134 and samples wortmannin, genistein, and +4 °C were calculated using calibration curve Fig. S135. […]
Prior to analysis samples were required to pass three tests before library construction: 1) nanodrop for RNA purity (OD 260/OD280), 2) agarose gel electrophoresis for RNA integrity and potential contamination, and 3) Agilent 2100 check RNA integrity. […] After library construction, qPCR was used to accurately quantify the library effective concentration (> 2 nM), in order to ensure the library quality. […]

Structure (SMILES): C[N+](C)=C1[S][Au-2]2([S]1)[c]1ccccc1Cc1cccc[n+]12.F[P-](F)(F)(F)(F)F (stereo not shown) [2a]
- Mitochondrial membrane potential (JC-1): strong depolarization of the MMP
